Where two headings read alike, the source gives them in different places.
What was measured:
[1] = system: Akt phosphorylation (Ser473-p-Akt) in PC-3 cells; assay: Inhibition of p-Akt phosphorylation level in PC-3 cells (cell level fluorescence imaging); assay type: cell-based; settings: Homo sapiens; Akt phosphorylation in PC-3 cells, 2 hours incubation; read-out: PC-3 cell (IC50/nM)
Method: This experiment was performed by cell level fluorescence image processing method.
Triton X-100: 10% aqueous Triton X-100 solution (Sigma T8787-100 mL) was prepared, stored at 4° C. and diluted by 1:100 to give 0.1% Triton X-100 aqueous solution for use in the experiment.
Prodium Iodide (PI): 1 mg/mL (1.5 mM) PI (Sigma P4170) storage solution was prepared with PBS and stored at −25° C. in the dark. For use, the PI storage solution was diluted with PBS by 1:1000 to give a 1.5 μM solution and used in dark.
PC-3 cells in logarithmic growth phase were digested with 0.25% EDTA trypsin. 3000 cells/90 μL were seeded in a 96-well plate (BD 356692) and cultured at 37° C. and 5% CO2. After the cells adhered, 10 μL of the compound to be tested which was gradiently diluted 3 times (0.0046 to 10 μM, 8 concentration points, in duplicate) was added and incubated for 2 hours, followed by addition of 100 μL of 4% paraformaldehyde (DINGGUO AR-0211) and incubated at room temperature for 45 minutes. Then 100 μL of 0.1% Triton X-100 solution was added and incubated for another 30 minutes.
Triton X-100 solution was removed and the cells were rinsed with 200 μl of PBS twice (300 rpm vibration for 1 minute). The blocking solution (1% BSA solution in PBS) (Genview FA016-100G) was added and incubated at room temperature for 2 hours. The plate was rinsed with PBS once (300 rpm, 1 min) and 30 μL of Ser473-p-Akt antibody (cell signaling 4060L) diluted with 0.1% BSA was added and incubated overnight at 4° C. Ser473-p-Akt antibody was removed and the plate was rinsed with PBS twice (300 rpm, 1 minute). 35 μL of Alexa Flour 488 donkey anti-rabbit IgG (Invitrogen A21206) was added and incubated at room temperature for 1.5 hours. The plate was rinsed with PBS twice (300 rpm, 1 minute) and 35 μL of 1.5 μM PI was added and incubated at room temperature for 0.5 h. The fluorescence intensity was measured with Acumen eX3 (TTP LabTech).
10 μM BEZ235 (Selleck S1009) treatment group was negative control and DMSO treatment group was positive control. Inhibition ratio %=[1−(the mean value of the fluorescence intensity of the compound to be tested−the mean value of the fluorescence intensity of the negative control group)/(the mean value of the fluorescence intensity of the positive control group−the mean value of the fluorescence intensity of the negative control group)]×100%

[2] = system: T47D cells; assay: Cell inhibitory activity detected by MTT assay, T47D; assay type: cell-based; settings: Homo sapiens, T47D, 72 h, read-out: T47D cell (IC50/nM), cell growth inhibition
Method: (§1) The MTT assay procedure and steps were carried out as well known to those skilled in the art, and all the reagents used in the methods were commercially available. The cells in logarithmic growth phase were digested with 0.25% EDTA trypsin (Gibco, 25200-056) and resuspended in fresh medium. 90 μL of the cell suspension was inoculated into a 96-well cell culture plate (BD Faclon 353072) with a suitable cell density and cultured at 37° C. under 5% CO2. After the cells adhered, 10 μL of the test compound at different concentrations (0.0046-10 μM, 8 concentration points) was added and incubated for another 72 h. 10 μL of MTT (5 mg/mL PBS solution) (Sigma, M5655) was added to react for 4 h. The absorbance at 492 nm was measured by using Thermo Scientific Multiskan MK3 microplate reader and IC50 was calculated using XLFIT 5.0 software (UK IDBS). T47D cell culture medium: RPMI-1640 medium (Hyclone SH30809.01B)+10% FBS (Gibco 10099-141)

[3] = system: MCF-7 cells; assay: Cell inhibitory activity detected by MTT assay, MCF-7; assay type: cell-based; settings: Homo sapiens, MCF7, 72 h, read-out: MCF-7 cell (IC50/nM), cell growth inhibition
Method: as §1, with “MCF-7” for “T47D”, “DMEM” for “RPMI-1640”, “SH30243.01B+10%” for “SH30809.01B)+10%”

[4] = target: T1, PI3K-α kinase (p110α/p85α) (Homo sapiens, UniProt P42336); assay: Determination of PI3K kinase activity (ADP Transcreener, fluorescence polarization); assay type: biochemical; settings: ATP 10 μM
T1 construct: purchased Invitrogen PV4788
Method: (§2) The inhibition of PI3K kinase activity by the compound to be tested was determined by the following method. The working concentration of each component in the 25 μL enzyme reaction system was: p110α/p85α 3 ng (or p110β/p85α 60 ng, or p110δ/p85α 90 ng, or p110γ 100 ng), ATP 10 μM, PIP2: PS (Invitrogen PV5100) 30 μM and the DMSO concentration was 2% after addition of the compound to be tested.
(§3) At the time of the test, the compound to be tested was dissolved in dimethylsulfoxide (DMSO) according to the desired concentration of the experiment. The compound to be tested was gradiently diluted 3 times (0.00046-1 μM, 8 concentration points) with 10% DMSO. 5 μL of the compound to be tested was added to each well of a 96-well plate (Greiner 675076) in duplicate. […] 10 μL of ATP/PIP2: PS and 10 μL of the PI3K enzyme working solution were added to each well in a 96-well plate. The plate was shaken and mixed uniformly, and then incubated at 25° C. for 1 hour. At the same time, ADP and ATP (0.01 μM, 0.02 μM, 0.04 μM, 0.06 μM, 0.08 μM[…], 0.1 μM, 0.25 μM, 0.5 μM, 1 μM, 2 μM, 5 μM, 10 μM, 12 concentration points) were diluted with buffer to set the standard curve. After completion of the enzyme reaction, 25 μL of ADP assay solution (1% 100×ADP tracer, 0.79% ADP antibody and 10% 10× reaction stop solution) was added and incubated at 25° C. for 1 hour. Fluorescence polarization value [mP] of each well was measured with a Perkin Elmer Victor X5 Fluorescent Microplate. The ADP concentration [ADP] was calculated from the ADP/ATP standard curve and the IC50 values were calculated using the XLFit software.

[5] = system: NIH3T3 cells; assay: Cytotoxicity by MTT assay, NIH3T3; assay type: cell-based; settings: Mus musculus, NIH3T3, 72 h, cytotoxicity class, read-out: NIH3T3 cell (IC50/nM)
Method: The MTT assay procedure and steps were carried out as well known to those skilled in the art, and all the reagents used in the methods were commercially available.
as §1, with “The” for “The MTT assay procedure and steps were carried out as well known to those skilled in the art, and all the reagents used in the methods were commercially available. The”, “IDBS).” for “IDBS). T47D cell culture medium: RPMI-1640 medium (Hyclone SH30809.01B)+10% FBS (Gibco 10099-141)”

[6] = target: T2, PI3K-β kinase (p110β/p85α) (Homo sapiens, UniProt P42338); assay: Determination of PI3K kinase activity (ADP Transcreener, fluorescence polarization); assay type: biochemical; settings: Table 1; ATP 10 μM; read-out: PI3K-β/nM (IC50 of inhibitory activity against PI3K kinase)
T2 construct: purchased Millipore 14-603
Method: as §2, §3

[7] = target: T3, PI3K-δ kinase (p110δ/p85α) (Homo sapiens, UniProt O00329); assay: as above; assay type: biochemical; settings: Table 1; ATP 10 μM; read-out: PI3K-δ/nM (IC50 of inhibitory activity against PI3K kinase)
T3 construct: purchased Millipore 14-604M
Method: as §2, §3

[8] = target: T4, PI3K-γ kinase (p110γ) (Homo sapiens, UniProt P48736); assay: as above; assay type: biochemical; settings: Table 1; ATP 10 μM; read-out: PI3K-γ/nM (IC50 of inhibitory activity against PI3K kinase)
T4 construct: purchased Invitrogen PV4786
Method: The PI3K kinase used in the experiment: p110α/p85α (Invitrogen PV4788), p110β/p85α (Millipore 14-603), p110δ/p85α (Millipore 14-604M), and p110γ (Invitrogen PV4786).
as §2
as §3, with “duplicate. 2.5× buffer was prepared and 1 μL of DTT (Millipore 20-265) was added to each 800 μL of 2.5× buffer.” for “duplicate.”

[9] = Table 2, read-out: PI3K-α/nM (IC50 of inhibitory activity against PI3K-α kinase)
[10] = Table 1, read-out: PI3K-α/nM (IC50 of inhibitory activity against PI3K kinase)

T1 sequence (P42336 whole entry): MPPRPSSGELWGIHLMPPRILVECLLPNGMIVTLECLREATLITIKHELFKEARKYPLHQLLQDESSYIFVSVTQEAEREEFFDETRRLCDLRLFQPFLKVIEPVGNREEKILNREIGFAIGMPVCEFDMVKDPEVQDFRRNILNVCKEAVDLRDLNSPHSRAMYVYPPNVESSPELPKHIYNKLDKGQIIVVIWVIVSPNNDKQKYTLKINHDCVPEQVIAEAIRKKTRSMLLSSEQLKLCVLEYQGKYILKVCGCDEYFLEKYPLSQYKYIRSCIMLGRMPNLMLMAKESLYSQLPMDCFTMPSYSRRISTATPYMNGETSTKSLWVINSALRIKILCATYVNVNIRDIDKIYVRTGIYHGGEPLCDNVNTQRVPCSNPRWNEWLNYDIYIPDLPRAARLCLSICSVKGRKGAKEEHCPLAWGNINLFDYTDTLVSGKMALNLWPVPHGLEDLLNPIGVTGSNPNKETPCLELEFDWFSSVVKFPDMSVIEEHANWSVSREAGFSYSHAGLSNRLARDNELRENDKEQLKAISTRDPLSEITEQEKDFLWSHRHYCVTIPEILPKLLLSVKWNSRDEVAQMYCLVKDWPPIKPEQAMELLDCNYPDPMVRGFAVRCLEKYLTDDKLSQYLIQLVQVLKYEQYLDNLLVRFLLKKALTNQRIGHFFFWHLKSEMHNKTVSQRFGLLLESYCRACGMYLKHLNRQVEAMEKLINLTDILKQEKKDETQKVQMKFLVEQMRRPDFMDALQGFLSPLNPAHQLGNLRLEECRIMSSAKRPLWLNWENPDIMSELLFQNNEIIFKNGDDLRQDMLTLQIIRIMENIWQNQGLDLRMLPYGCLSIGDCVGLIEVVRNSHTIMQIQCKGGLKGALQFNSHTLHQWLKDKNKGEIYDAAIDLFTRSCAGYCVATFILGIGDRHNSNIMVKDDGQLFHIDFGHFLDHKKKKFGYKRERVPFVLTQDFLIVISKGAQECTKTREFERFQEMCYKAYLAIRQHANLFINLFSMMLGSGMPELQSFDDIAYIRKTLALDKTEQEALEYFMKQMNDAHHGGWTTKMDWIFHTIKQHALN
T1 sequence (P27986 whole entry partner): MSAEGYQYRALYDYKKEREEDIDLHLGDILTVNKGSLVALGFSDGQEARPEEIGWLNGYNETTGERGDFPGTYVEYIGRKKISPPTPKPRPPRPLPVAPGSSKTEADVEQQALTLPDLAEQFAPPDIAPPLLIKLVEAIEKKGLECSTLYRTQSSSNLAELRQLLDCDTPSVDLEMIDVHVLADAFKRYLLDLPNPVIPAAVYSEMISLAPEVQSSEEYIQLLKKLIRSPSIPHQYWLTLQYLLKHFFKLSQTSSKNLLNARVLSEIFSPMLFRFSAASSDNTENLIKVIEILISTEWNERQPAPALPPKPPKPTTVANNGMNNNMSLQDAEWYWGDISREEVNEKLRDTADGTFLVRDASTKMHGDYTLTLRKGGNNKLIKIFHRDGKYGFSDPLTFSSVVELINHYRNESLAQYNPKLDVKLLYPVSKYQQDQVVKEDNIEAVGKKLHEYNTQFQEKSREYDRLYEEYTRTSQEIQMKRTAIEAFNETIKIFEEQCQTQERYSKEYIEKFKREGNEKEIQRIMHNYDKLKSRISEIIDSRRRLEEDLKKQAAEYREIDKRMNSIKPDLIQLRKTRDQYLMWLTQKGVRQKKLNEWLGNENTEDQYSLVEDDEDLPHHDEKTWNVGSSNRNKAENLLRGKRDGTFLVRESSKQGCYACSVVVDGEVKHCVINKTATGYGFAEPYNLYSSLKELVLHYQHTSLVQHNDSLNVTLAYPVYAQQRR
T3 sequence (O00329 whole entry): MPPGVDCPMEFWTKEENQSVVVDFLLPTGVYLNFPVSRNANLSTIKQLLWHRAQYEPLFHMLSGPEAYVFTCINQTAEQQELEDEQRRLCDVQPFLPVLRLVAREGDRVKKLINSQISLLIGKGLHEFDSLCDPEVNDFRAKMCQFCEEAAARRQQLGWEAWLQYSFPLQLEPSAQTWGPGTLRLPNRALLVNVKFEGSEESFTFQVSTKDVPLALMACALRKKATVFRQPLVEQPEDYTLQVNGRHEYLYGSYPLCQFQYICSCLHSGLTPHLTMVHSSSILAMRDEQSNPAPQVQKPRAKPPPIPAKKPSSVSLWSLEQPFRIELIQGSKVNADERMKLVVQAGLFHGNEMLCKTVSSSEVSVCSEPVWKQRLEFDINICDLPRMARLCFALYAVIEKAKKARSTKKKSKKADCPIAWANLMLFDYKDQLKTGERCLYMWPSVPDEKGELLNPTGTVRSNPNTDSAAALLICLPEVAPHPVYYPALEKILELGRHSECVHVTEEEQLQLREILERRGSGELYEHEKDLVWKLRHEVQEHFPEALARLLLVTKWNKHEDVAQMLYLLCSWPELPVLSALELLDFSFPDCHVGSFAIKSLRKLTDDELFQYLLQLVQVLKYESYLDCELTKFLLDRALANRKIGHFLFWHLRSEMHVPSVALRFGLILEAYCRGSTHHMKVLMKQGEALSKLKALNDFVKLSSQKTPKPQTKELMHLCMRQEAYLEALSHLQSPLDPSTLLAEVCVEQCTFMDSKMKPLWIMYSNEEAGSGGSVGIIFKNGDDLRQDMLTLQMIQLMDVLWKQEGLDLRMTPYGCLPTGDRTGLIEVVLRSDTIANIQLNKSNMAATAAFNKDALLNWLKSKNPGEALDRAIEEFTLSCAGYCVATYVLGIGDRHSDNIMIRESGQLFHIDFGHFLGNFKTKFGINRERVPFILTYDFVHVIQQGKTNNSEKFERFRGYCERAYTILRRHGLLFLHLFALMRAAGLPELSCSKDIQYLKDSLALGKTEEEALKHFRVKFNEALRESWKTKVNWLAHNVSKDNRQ
T3 sequence (P27986 whole entry partner): as the sequence (P27986 whole entry partner) above
T2 sequence (P42338 whole entry): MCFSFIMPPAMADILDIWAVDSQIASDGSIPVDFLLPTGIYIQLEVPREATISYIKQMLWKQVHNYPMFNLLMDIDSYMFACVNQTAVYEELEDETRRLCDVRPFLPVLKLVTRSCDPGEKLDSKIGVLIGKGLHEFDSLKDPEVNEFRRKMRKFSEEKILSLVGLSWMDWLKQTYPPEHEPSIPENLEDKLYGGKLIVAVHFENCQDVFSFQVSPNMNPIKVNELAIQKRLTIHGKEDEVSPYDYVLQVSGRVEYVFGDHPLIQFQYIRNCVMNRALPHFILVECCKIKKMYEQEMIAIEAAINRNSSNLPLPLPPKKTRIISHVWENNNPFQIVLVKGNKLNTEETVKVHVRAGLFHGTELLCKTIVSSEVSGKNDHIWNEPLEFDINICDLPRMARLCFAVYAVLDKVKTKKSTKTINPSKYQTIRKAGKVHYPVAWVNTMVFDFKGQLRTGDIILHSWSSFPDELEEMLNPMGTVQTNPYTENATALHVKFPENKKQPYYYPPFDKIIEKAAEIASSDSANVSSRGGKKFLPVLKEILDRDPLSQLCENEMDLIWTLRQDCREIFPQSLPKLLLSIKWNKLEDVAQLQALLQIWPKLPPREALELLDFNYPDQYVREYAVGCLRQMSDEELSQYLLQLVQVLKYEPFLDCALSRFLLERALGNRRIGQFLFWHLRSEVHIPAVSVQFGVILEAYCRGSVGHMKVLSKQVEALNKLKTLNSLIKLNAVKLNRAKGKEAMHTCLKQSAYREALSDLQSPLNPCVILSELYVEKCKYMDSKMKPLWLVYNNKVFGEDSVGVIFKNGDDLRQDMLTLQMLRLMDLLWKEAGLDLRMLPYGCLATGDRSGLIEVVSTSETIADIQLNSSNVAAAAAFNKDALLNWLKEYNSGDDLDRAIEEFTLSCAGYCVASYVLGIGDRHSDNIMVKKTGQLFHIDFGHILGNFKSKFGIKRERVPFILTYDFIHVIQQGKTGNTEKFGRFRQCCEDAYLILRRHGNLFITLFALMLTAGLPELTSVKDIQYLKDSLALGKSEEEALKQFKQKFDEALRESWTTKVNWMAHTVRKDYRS
T2 sequence (P27986 whole entry partner): as the sequence (P27986 whole entry partner) above
T4 sequence (P48736 whole entry): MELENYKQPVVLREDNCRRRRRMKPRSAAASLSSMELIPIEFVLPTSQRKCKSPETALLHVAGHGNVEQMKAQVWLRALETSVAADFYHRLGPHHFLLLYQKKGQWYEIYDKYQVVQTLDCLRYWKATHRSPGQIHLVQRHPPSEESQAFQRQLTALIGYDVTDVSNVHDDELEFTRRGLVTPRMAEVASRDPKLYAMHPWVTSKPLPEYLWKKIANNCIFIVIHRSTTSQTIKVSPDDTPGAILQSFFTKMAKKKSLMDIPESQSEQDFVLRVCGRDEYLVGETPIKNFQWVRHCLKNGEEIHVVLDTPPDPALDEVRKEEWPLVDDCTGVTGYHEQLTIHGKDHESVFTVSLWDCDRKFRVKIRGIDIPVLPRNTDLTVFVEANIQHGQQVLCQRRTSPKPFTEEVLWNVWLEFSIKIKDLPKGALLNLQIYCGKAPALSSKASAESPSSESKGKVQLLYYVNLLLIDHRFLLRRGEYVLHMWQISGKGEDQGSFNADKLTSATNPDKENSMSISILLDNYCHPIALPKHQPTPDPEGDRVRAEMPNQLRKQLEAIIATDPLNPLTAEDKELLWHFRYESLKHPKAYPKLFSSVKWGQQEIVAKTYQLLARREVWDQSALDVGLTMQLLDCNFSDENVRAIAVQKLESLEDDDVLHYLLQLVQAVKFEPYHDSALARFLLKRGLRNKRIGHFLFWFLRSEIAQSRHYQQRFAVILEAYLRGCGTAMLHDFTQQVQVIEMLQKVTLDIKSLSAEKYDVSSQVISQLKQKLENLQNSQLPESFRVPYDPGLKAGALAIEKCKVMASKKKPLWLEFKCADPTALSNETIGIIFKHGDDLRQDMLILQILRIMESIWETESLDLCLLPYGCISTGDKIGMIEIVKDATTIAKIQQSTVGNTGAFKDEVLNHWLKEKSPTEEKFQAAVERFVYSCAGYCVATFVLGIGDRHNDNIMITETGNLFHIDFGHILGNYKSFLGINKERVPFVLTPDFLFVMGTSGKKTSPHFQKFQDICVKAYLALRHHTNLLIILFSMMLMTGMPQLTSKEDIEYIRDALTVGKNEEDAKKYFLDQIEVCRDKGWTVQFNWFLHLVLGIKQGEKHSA

SMILES	IC50 [1] [nM]	IC50 [3] [nM]	IC50 [5] [nM]	further results
Nc1cc(C(F)(F)F)c(-c2cc(N3CCOCC3)nc(N3CCOCC3)n2)cn1 [BKM-120, reference compound]	596	–	–	–
CS(=O)(=O)C1(c2cc(-c3cnc(N)cc3C(F)(F)F)nc(N3CCOCC3)c2)CC1 [Comparative compound 1, 4-(1-(methylsulfonyl)cyclopropyl)-6-morpholino-4′-(trifluoromethyl)-2,3′bipyridyl-6′-amine, reference compound]	2260	996	–	IC50 [2]: 1220 nM
CCOC(=O)C1(c2cc(-c3cnc(N)cc3C(F)(F)F)nc(N3CCOCC3)n2)CC1 [Compound S-2]	–	–	5000 to 10000	IC50 [4, 9]: 550 nM
C[C@@H]1COCCN1c1nc(-c2cnc(N)cc2C(F)(F)F)cc(C2(S(C)(=O)=O)CC2)n1 [Compound S-5]	–	–	1000 to 3000	–
Nc1cc(C(F)(F)F)c(-c2cc(C3(C(=O)N4CCCCC4)CC3)nc(N3CCOCC3)n2)cn1 [Compound S-7]	–	–	> 10000	–
Nc1cc(C(F)(F)F)c(-c2cc(C3(CN4CCOCC4)CC3)nc(N3CCOCC3)n2)cn1 [Compound S-8, 5-(2-morpholino-6-(1-(morpholinomethyl)cyclopropyl)pyrimidin-4-yl)-4-(trifluoromethyl)pyridin-2-amine]	–	–	> 10000	–
C[C@H]1COCCN1c1nc(-c2cnc(N)cc2C(F)(F)F)cc(C2(S(=O)(=O)c3ccccc3)CCC2)n1 [Compound S-15]	–	–	5000 to 10000	–
CNc1cc(C(F)(F)F)c(-c2cc(C3(S(C)(=O)=O)CC3)nc(N3CCOCC3)n2)cn1 [Compound S-36]	–	–	3000 to 5000	–
CC(C)(c1cc(-c2ccc(N)nc2)nc(N2CCOCC2)n1)S(C)(=O)=O [Compound S-39]	513	441	–	–
CS(=O)(=O)C1(c2cc(-c3ccc(N)nc3)nc(N3CCOCC3)n2)CC1 [Compound S-40]	465	355	–	IC50 [4, 9]: 92 nM
CC(C)(c1cc(-c2cnc(N)cc2C(F)(F)F)nc(N2CCOCC2)n1)n1ncc2ccccc21 [Compound S-56, 5-(6-(2-(1H-indazol-1-yl)propan-2-yl)-2-morpholinopyrimidin-4-yl)-4-(trifluoromethyl)pyridin-2-amine]	–	–	> 10000	–
CC(C)(O)c1cc(-c2cnc(N)cc2Cl)nc(N2CCOCC2)n1 [Compound S-63]	577	240	–	IC50 [4, 10]: 21 nM; IC50 [6]: 228 nM; IC50 [7]: 158 nM; IC50 [8]: 428 nM
CC(C)(O)c1cc(-c2cnc(N)nc2C(F)(F)F)nc(N2CCOCC2)n1 [Compound S-64]	330	–	–	IC50 [4, 10]: 13 nM; IC50 [6]: 27 nM; IC50 [7]: 19 nM; IC50 [8]: 431 nM
